Experimental data reported in patent publication US8148391B2 (Cephalon, Inc., priority 2006, dated 2012).
Read-outs that look alike come from different tables or passages of the source. Blank lines part the entries; values can stand above or below the compound they belong to.

Tests used:
[1] = target: T1, c-Met (cytoplasmic domain) (Homo sapiens, UniProt P08581); test: c-Met Kinase Assay (same methods as for ALK, with modifications); assay type: biochemical
T1 construct: 10 ng/mL c-Met (cytoplasmic domain, Invitrogen Corporation #PV3143); purchased Invitrogen Corporation PV3143
Summary of the method: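 Europium-labeled PT66 antibody (Eu-N1) detects substrate phosphorylation on wells coated with phospholipase C-γ at 10 μg/mL. The kinase, the cytoplasmic domain of c-Met at 10 ng/mL, starts the reaction, which proceeds 15 minutes at 37° C.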

[2] = target: T2, baculovirus-expressed ALK (Homo sapiens, UniProt Q9UM73); test: ALK Kinase Assay (ELISA-type, time-resolved fluorescence); assay type: biochemical
T2 construct: host or cells: baculovirus expression system
Summary of the method: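 Plates coated with phospholipase C-γ substrate (10 μg/mL in TBS); reaction started with 30 ng/ml ALK and run 15 min at 37° C. Phosphorylated substrate detected with Eu-N1-labeled PT66 antibody. IC50 from sigmoidal variable-slope fit of percent inhibition vs log concentration.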

[3] = 1 μM ATP (Km level), 10 ng/mL c-Met, read-out: cMet Activity (c-Met kinase inhibition, IC50 class)
[4] = 1 μM ATP (Km level), 30 ng/ml ALK, 37° C., 15 minutes, read-out: ALK Activity (ALK kinase inhibition, IC50 class)
[5] = 1 μM ATP (Km level), read-out: ALK Activity (ALK Kinase Inhibition, IC50)
[6] = 1 μM ATP (Km level), read-out: cMet Activity (c-Met Kinase Inhibition, IC50)
[7] = c-Met kinase inhibition, 1 μM ATP, read-out: cMet Activity
[8] = ALK kinase inhibition, 1 μM ATP, read-out: ALK Activity
[9] = c-Met kinase inhibition, 1 μM ATP (Km level), read-out: cMet Activity
[10] = ALK kinase inhibition, 1 μM ATP (Km level), read-out: ALK Activity

T2 sequence (Q9UM73 19-1620): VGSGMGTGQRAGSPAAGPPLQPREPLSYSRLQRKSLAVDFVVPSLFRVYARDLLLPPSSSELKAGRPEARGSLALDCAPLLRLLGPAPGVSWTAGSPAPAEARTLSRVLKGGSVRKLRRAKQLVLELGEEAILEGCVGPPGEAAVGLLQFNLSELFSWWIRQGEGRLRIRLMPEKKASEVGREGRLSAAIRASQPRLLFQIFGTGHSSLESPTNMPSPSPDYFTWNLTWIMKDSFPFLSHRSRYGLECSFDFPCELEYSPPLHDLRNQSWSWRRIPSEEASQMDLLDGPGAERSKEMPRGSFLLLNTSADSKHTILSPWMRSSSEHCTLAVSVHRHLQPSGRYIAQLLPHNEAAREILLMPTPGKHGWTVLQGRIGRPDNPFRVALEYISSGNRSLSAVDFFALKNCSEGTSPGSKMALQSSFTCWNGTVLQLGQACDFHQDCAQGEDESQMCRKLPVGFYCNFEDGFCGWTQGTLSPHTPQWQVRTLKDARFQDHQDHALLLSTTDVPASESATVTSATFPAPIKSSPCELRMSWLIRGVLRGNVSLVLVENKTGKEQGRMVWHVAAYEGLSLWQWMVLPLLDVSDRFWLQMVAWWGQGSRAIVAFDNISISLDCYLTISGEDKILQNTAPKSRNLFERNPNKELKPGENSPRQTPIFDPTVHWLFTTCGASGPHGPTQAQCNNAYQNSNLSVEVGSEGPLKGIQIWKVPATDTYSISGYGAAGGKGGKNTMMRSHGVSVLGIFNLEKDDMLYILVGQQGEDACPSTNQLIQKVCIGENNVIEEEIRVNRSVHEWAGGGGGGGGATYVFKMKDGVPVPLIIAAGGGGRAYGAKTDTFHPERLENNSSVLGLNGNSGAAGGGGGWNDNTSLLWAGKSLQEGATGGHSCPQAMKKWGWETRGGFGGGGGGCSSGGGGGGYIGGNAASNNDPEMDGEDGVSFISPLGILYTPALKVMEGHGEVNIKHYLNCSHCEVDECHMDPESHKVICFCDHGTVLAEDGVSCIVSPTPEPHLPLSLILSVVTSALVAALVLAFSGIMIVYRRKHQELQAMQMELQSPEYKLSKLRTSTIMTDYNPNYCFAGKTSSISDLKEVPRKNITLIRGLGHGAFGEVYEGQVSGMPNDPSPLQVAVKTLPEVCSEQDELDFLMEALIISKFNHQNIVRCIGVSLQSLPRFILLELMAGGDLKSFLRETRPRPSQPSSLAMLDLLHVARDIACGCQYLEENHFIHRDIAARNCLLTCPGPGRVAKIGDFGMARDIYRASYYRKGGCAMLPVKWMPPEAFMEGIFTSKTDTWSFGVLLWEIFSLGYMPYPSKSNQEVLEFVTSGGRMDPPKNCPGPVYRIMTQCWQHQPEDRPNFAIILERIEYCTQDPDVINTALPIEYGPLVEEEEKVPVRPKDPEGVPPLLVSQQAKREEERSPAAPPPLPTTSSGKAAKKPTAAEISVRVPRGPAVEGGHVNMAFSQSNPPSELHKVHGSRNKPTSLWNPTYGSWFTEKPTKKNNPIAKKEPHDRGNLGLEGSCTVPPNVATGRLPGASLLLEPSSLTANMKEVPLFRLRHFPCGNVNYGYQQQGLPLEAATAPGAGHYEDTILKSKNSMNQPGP
T1 sequence (P08581 956-1390 limits assumed): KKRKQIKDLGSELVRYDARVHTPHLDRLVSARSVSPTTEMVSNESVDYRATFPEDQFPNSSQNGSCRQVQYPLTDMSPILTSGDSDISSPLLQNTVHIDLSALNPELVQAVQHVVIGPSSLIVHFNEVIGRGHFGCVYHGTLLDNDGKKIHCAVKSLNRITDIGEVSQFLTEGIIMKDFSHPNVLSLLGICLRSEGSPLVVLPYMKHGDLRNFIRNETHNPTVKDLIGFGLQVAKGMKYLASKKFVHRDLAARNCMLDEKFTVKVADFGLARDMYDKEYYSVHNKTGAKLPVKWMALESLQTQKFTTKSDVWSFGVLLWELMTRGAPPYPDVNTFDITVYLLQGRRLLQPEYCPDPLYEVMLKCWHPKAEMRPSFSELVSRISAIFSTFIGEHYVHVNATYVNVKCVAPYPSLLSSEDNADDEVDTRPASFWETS

- IC50 [1, 3]: > 10000 nM
- IC50 [2, 4]: < 100 nM
Compound: COc1cc2c(cc1Nc1ncc(Cl)c(N[C@H]3[C@@H](C(N)=O)[C@@H]4C=C[C@H]3C4)n1)CCN(CC(=O)N1CCCC1)CC2 [Example 1159, (1S,2S,3R,4R)-3-{5-Chloro-2-[8-methoxy-3-(2-oxo-2-pyrrolidin-1-yl-ethyl)-2,3,4,5-tetrahydro-1H-benzo[d]azepin-7-ylamino]-pyrimidin-4-ylamino}-bicyclo[2.2.1]hept-5-ene-2-carboxylic acid amide]

Compound: COc1c(Nc2ncc(Cl)c(N[C@H]3[C@@H](C(N)=O)[C@@H]4C=C[C@H]3C4)n2)ccc2c1CC[C@H](N1CCOCC1)CC2 [Example 881, (1S,2S,3R,4R)-3-[5-Chloro-2-((R)-1-methoxy-7-morpholin-4-yl-6,7,8,9-tetrahydro-5H-benzocyclohepten-2-ylamino)-pyrimidin-4-ylamino]-bicyclo[2.2.1]hept-5-ene-2-carboxylic acid amide]
- IC50 ([1]; cMet Activity (c-Met Kinase Inhibition, IC50), 1 μM ATP (Km level)): > 10000 nM
- IC50 [2, 5]: < 100 nM

- IC50 [1, 6]: 1000 to 10000 nM
- IC50 [2, 5]: < 100 nM
Compound: CN1CCN(C2CCc3ccc(Nc4ncc(Cl)c(N[C@@H]5CCCC[C@H]5NS(C)(=O)=O)n4)cc3CC2)CC1 (stereo partly drawn) [Example 888, N-((1R,2R)-2-{5-Chloro-2-[7-(4-methyl-piperazin-1-yl)-6,7,8,9-tetrahydro-5H-benzocyclohepten-2-ylamino]-pyrimidin-4-ylamino}-cyclohexyl)-methanesulfonamide]

Compound: COc1c(Nc2ncc(Cl)c(N[C@H]3[C@@H](C(N)=O)[C@@H]4C=C[C@H]3C4)n2)ccc2c1CCCC(N1CCOCC1)C2 (single isomer, unassigned) [Example 941]
- IC50 ([1]; read-out: cMet Activity (c-Met Kinase Inhibition, IC50), 1 μM ATP (Km level)): > 10000 nM
- IC50 [2, 5]: < 100 nM

- IC50 [1, 7]: < 100 nM
- IC50 [2, 8]: 100 to 1000 nM
Compound: CNC(=O)c1ccc(Cl)c(Cl)c1Nc1nc(Nc2ccc3c(c2)CCOC(=O)N3C)ncc1Cl [Example 1757, 3,4-Dichloro-2-[5-chloro-2-(5-methyl-6-oxo-5,6,8,9-tetrahydro-7-oxa-5-aza-benzocyclohepten-2-ylamino)-pyrimidin-4-ylamino]-N-methyl-benzamide]

- IC50 [1, 9]: 100 to 1000 nM
- IC50 [2, 10]: 100 to 1000 nM
Compound: CNC(=O)c1cccc(F)c1Nc1nc(Nc2ccc3c(c2)C(=O)NCCC3)ncc1Cl [Example 400, 2-[5-Chloro-2-(1-oxo-2,3,4,5-tetrahydro-1H-benzo[c]azepin-8-ylamino)-pyrimidin-4-ylamino]-3-fluoro-N-methyl-benzamide]

Compound: N-((1R,2R)-2-{5-Chloro-2-[7-(2,2-difluoro-ethylamino)-6,7,8,9-tetrahydro-5H-benzocyclohepten-2-ylamino]-pyrimidin-4-ylamino}-cyclohexyl)-methanesulfonamide [Example 675]
- IC50 [1, 6]: > 10000 nM
- IC50 [2, 5]: < 100 nM

- IC50 [1, 6]: 1000 to 10000 nM
- IC50 [2, 5]: < 100 nM
Compound: COc1c(Nc2ncc(Cl)c(Nc3ccccc3S(=O)(=O)N3CC[C@H](O)C3)n2)ccc2c1CCCC(NCCO)C2 (stereo partly drawn) [Example 963, (S)-1-(2-{5-Chloro-2-[6-(2-hydroxy-ethylamino)-1-methoxy-6,7,8,9-tetrahydro-5H-benzocyclohepten-2-ylamino]-pyrimidin-4-ylamino}-benzenesulfonyl)-pyrrolidin-3-ol]

- IC50 [1, 9]: 100 to 1000 nM
- IC50 [2, 10]: < 100 nM
Compound: Cn1ccnc1-c1ccccc1Nc1nc(Nc2ccc3c(c2)C(C)(C)CCC(=O)N3)ncc1Cl [Example 397, 7-{5-Chloro-4-[2-(1-methyl-1H-imidazol-2-yl)-phenylamino]-pyrimidin-2-ylamino}-5,5-dimethyl-1,3,4,5-tetrahydro-benzo[b]azepin-2-one]

- IC50 [1, 6]: 1000 to 10000 nM
- IC50 [2, 5]: < 100 nM
Compound: CCN1CCN(CC)c2cc(Nc3ncc(Cl)c(N[C@@H]4[C@H](C(N)=O)[C@H]5C=C[C@@H]4C5)n3)ccc2C1 [Example 714, (2-exo,3-exo)-3-[5-Chloro-2-(1,4-diethyl-2,3,4,5-tetrahydro-1H-benzo[e][1,4]diazepin-8-ylamino)-pyrimidin-4-ylamino]-bicyclo[2.2.1}hept-5-ene-2-carboxylic acid amide]

- IC50 [1, 3]: < 100 nM
- IC50 [2, 4]: < 100 nM
Compound: N#CCNC(=O)c1cccc(F)c1Nc1nc(Nc2ccc3c(c2)CCCC(=O)N3)ncc1Cl [Example 1046, 2-[5-Chloro-2-(2-oxo-2,3,4,5-tetrahydro-1H-benzo[b]azepin-7-ylamino)-pyrimidin-4-ylamino]-N-cyanomethyl-3-fluoro-benzamide]

- IC50 [1, 6]: 100 to 1000 nM
- IC50 [2, 5]: < 100 nM
Compound: COCCN1CCc2ccc(Nc3ncc(Cl)c(Nc4ccccc4-c4ncccc4OC)n3)cc2CC1 [Example 990, 5-Chloro-N*2*-[3-(2-methoxy-ethyl)-2,3,4,5-tetrahydro-1H-benzo[d]azepin-7-yl]-N*4*-[2-(3-methoxy-pyridin-2-yl)-phenyl]-pyrimidine-2,4-diamine]

- IC50 [1, 3]: > 10000 nM
- IC50 [2, 4]: < 100 nM
Compound: CC1(C)CCC(=O)Nc2ccc(Nc3ncc(Cl)c(Nc4ccc5[nH]c(C(F)(F)F)nc5c4)n3)cc21 [Example 1014, 7-[5-Chloro-4-(2-trifluoromethyl-1H-benzoimidazol-5-ylamino)-pyrimidin-2-ylamino]-5,5-dimethyl-1,3,4,5-tetrahydro-benzo[b]azepin-2-one]

- IC50 [1, 9]: 1000 to 10000 nM
- IC50 [2, 10]: < 100 nM
Compound: COCCN1CCc2ccc(Nc3ncc(Cl)c(N[C@@H]4[C@H](C(N)=O)[C@@H]5C=C[C@H]4C5)n3)cc2CC1 (relative stereo) [Example 459, (2-endo, 3-endo)-3-{5-Chloro-2-[3-(2-methoxy-ethyl)-2,3,4,5-tetrahydro-1H-benzo[d]azepin-7-ylamino]-pyrimidin-4-ylamino}-bicyclo[2.2.1]hept-5-ene-2-carboxylic acid amide]

- IC50 [1, 6]: > 10000 nM
- IC50 [2, 5]: < 100 nM
Compound: COc1cc2c(cc1Nc1ncc(Cl)c(Nc3ccc(N4CCN(C)CC4)cc3OC)n1)CCN(CC(C)(F)F)CC2 [Example 781, 5-Chloro-N*2*-[3-(2,2-difluoro-propyl)-8-methoxy-2,3,4,5-tetrahydro-1H-benzo[d]azepin-7-yl]-N*4*-[2-methoxy-4-(4-methyl-piperazin-1-yl)-phenyl]-pyrimidine-2,4-diamine]

- IC50 [1, 7]: 1000 to 10000 nM
- IC50 [2, 8]: < 100 nM
Compound: CNC(=O)c1ccccc1Nc1nc(Nc2cc3c(cc2OC)CCOC(=O)N3C)ncc1Br [Example 1512, 2-[5-Bromo-2-(2-methoxy-5-methyl-6-oxo-5,6,8,9-tetrahydro-7-oxa-5-aza-benzocyclohepten-3-ylamino)-pyrimidin-4-ylamino]-N-methyl-benzamide]

- IC50 [1, 3]: > 10000 nM
- IC50 [2, 4]: 1000 to 10000 nM
Compound: CS(=O)(=O)c1cccc(F)c1Nc1nc(Nc2ccc3c(c2)NC(=O)CCC3)ncc1Cl [Example 1261, 8-[5-Chloro-4-(2-fluoro-6-methanesulfonyl-phenylamino)-pyrimidin-2-ylamino]-1,3,4,5-tetrahydro-1-benzazepin-2-one]

- IC50 [1, 3]: 100 to 1000 nM
- IC50 [2, 4]: 1000 to 10000 nM
Compound: Cc1cccc(C(=O)NCC#N)c1Nc1nc(Nc2ccc3c(c2)CCCC(=O)N3C)ncc1Cl [Example 1039, 2-[5-Chloro-2-(1-methyl-2-oxo-2,3,4,5-tetrahydro-1H-benzo[b]azepin-7-ylamino)-pyrimidin-4-ylamino]-N-cyanomethyl-3-methyl-benzamide]

- IC50 [1, 7]: < 100 nM
- IC50 [2, 8]: 100 to 1000 nM
Compound: C#CCNC(=O)c1cccc(F)c1Nc1nc(Nc2ccc3c(c2)N(C(C)=O)CCCO3)ncc1Cl [Example 1713, 2-[2-(9-Acetyl-6,7,8,9-tetrahydro-5-oxa-9-aza-benzocyclohepten-2-ylamino)-5-chloro-pyrimidin-4-ylamino]-3-fluoro-N-prop-2-ynyl-benzamide]

- IC50 [1, 7]: > 10000 nM
- IC50 [2, 8]: < 100 nM
Compound: COCCOC(=O)c1ccccc1Nc1nc(Nc2cc3c(cc2OC)CCN(CC(C)O)CC3)ncc1Cl (stereo not shown) [Example 1550, 2-{5-Chloro-2-[3-(2-hydroxy-propyl)-8-methoxy-2,3,4,5-tetrahydro-1H-3-benzazepin-7-ylamino]-pyrimidin-4-ylamino}-benzoic acid 2-methoxy-ethyl ester]

- IC50 [1, 6]: > 10000 nM
- IC50 [2, 5]: < 100 nM
Compound: COc1cc2c(cc1Nc1ncc(Cl)c(Nc3ccccc3S(=O)(=O)N(C)C)n1)CCN(CC(C)(F)F)CC2 [Example 824, 2-{5-Chloro-2-[3-(2,2-difluoro-propyl)-8-methoxy-2,3,4,5-tetrahydro-1H-benzo[d]azepin-7-ylamino]-pyrimidin-4-ylamino}-N,N-dimethyl-benzenesulfonamide]

- IC50 [1, 9]: 1000 to 10000 nM
- IC50 [2, 10]: < 100 nM
Compound: CCN1CCc2ccc(Nc3ncc(Cl)c(Nc4ccc(N5CCOCC5)cc4)n3)cc2CC1 [Example 443, 5-Chloro-N*2*-(3-ethyl-2,3,4,5-tetrahydro-1H-benzo[d]azepin-7-yl)-N*4*-(4-morpholin-4-yl-phenyl)-pyrimidine-2,4-diamine]

- IC50 [1, 3]: < 100 nM
- IC50 [2, 4]: 100 to 1000 nM
Compound: CCNC(=O)c1cccc(F)c1Nc1nc(Nc2ccc3c(c2)CNC(=O)CCN3C(C)=O)ncc1Cl [Example 1228, 2-[2-(1-Acetyl-4-oxo-1,2,3,4,5,6-hexahydro-benzo[b][1,5]diazocin-8-ylamino)-5-chloro-pyrimidin-4-ylamino]-N-ethyl-3-fluoro-benzamide]
